RP-LC retention time data for 80 compounds are collected here from the METLIN SMRT retention time set (Domingo-Almenara et al. 2019).

The data set is described as follows: gradient 5% acetonitrile 3 min, to 50% in 2 min, to 85% in 15 min, held 3 min, 100 µL/min. The following applies: column: Zorbax Extend-C18 2.1 x 50 mm; eluents: water / acetonitrile, 0.1% formic acid. A digest of the protocol: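 Retention time was recorded from adduct peaks, which were picked computationally and each inspected manually. Pure standards ran in mixtures of ~100 molecules on HPLC coupled to a quadrupole time-of-flight mass spectrometer, in positive and negative ionization mode, through a Zorbax Extend-C18 column (2.1 × 50 mm, 1.8 μm) at 100 μL/min. Eluents were water and acetonitrile, each with 0.1% formic acid.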
Compound `Cc1nc(-c2cn(C(C)C)c3ncccc23)sc1C(=O)N(C)Cc1ccccc1` displayed an RP-LC retention time of 1050 s.

With `Cn1cc(CN2CCC(C(=O)NC3CCN(Cc4ccccc4)CC3)CC2)c2cc(Cl)ccc21`, the RP-LC retention time came out at 593 s.

`Cc1oc2ccn(Cc3ccccc3F)c(=O)c2c1C(=O)NCC1CCCO1` (stereo not given) returned an RP-LC retention time of 891 s.

As to `COc1cc(-c2nc3ccc(Cl)cn3c2Nc2ccc3c(c2)OCCO3)ccc1O`, the RP-LC retention time was 680 s.

Regarding `COc1ccc(-c2noc(-c3cccnc3N3CCN(c4ccccc4)CC3)n2)cc1`, the RP-LC retention time was 1290 s.

As for `CC(=O)N1CCC2(CC1)CC(N(C(=O)NC(C)C)C1CC1)CCO2` (stereo not given), the RP-LC retention time turned out to be 653 s.

Take `COc1ccc(OC)c(-c2cc(C(=O)NCCn3cnc(-c4ccccc4)cc3=O)[nH]n2)c1`: the RP-LC retention time was 736 s.

As to `CCCNC(=O)c1cc(=O)[nH]c2c(C)cccc12`, the RP-LC retention time came out at 647 s.

Regarding `CCOC(=O)c1c(N)n(-c2ccccc2)c2nc3ccccc3nc12`, the RP-LC retention time was found to be 683 s.

For the compound `Cc1nc(-c2cc3ccccc3nc2N2CCN(c3ccccc3)CC2)no1`, the RP-LC retention time is 666 s.

`CN(Cc1nc(-c2ccc(N3CCCCC3)nc2)no1)C1CCCCC1` gave an RP-LC retention time of 666 s.

The compound `O=S(=O)(c1ccc2c(c1)-c1oncc1CO2)N1CCN(c2ccccn2)CC1` showed an RP-LC retention time of 647 s.

The compound `COc1ccc(N2CCN(C(=O)c3cn4c(n3)COCC4)CC2)cc1` registered an RP-LC retention time of 598 s.

With `O=C(Nc1ccc(-c2cn3c(C(=O)N4CCCC4)csc3n2)cc1)c1ccccc1`, the RP-LC retention time amounted to 780 s.

For the compound `Cc1[nH]nc(-c2c(C)sc(C)c2S(=O)(=O)NCCC2=CCCCC2)c1C`, the RP-LC retention time was 1210 s.

Consider `Cc1cccc2c(=O)n(C3CCN(C(=O)Nc4ccccc4)CC3)cnc12`, for which the RP-LC retention time was found to be 751 s.

On to `Cc1nn(CC(=O)NCCCN(C)Cc2ccccc2)c(=O)c2noc(C)c12`, for which the RP-LC retention time came out at 588 s.

`COc1ccc(-c2noc(Cc3nnc(-c4ccc(Cl)cc4)o3)n2)cc1F` displayed an RP-LC retention time of 1060 s.

For `CCN1CCN(c2c(C(=O)c3ccc(C)cc3)cnc3cc(OC)c(OC)cc23)CC1`, the RP-LC retention time is 559 s.

In the case of `O=C(Nc1ccc2c(c1)C(=O)Nc1ccccc1O2)NC1CCCCC1`, the RP-LC retention time is 776 s.

`O=C(CSc1nnc(NC(=O)C2CC2)s1)NCc1ccc(F)cc1` displayed an RP-LC retention time of 674 s.

`COCCCn1cc(C(=O)N2CCc3ccccc3C2)c2nn(-c3ccccc3)c(=O)c-2c1` gave an RP-LC retention time of 770 s.

`Cc1oc(C2CCN(C(=O)C3CCN(S(=O)(=O)N4CCC(C)CC4)CC3)CC2)nc1C(=O)N1CCCC1` yielded an RP-LC retention time of 861 s.

In the case of `O=C(CSc1nc2ncccc2n2cccc12)N1CCN(c2ccccn2)CC1`, the RP-LC retention time came to 592 s.

Regarding `O=C1NC(C(=O)NC2CCCC2)Cn2cccc21` (stereo not given), the RP-LC retention time is 628 s.

Compound `CC(NC(=O)C1=C2CCCN2c2ccccc2S1(=O)=O)c1ccccc1` (stereo not given) showed an RP-LC retention time of 855 s.

`Fc1ccccc1-c1noc(Cc2nnc(-c3cccc(Cl)c3)o2)n1` showed an RP-LC retention time of 1080 s.

`CC(=O)Nc1nc(-c2ccc3c(c2)N(C)C(=O)CO3)c(C)s1` had an RP-LC retention time of 726 s.

On to `COc1ccc(C)cc1NC(=O)Cn1nc(N2CCCC2)c2ccccc2c1=O`, for which the RP-LC retention time was determined as 840 s.

Regarding `CN1CCN(CC2CCC3(CCN(S(=O)(=O)c4ccc(C(C)(C)C)cc4)CC3)O2)CC1` (stereo not given), the RP-LC retention time came to 665 s.

Consider `O=S(=O)(c1cccnc1)N1CCc2[nH]nc(-c3ccc(F)cc3)c2C1`, for which the RP-LC retention time was 740 s.

In turn, `CCCC(C)C(=O)N1CC2CN(S(=O)(=O)c3ccccc3)CC(C1)O2` (stereo not given) displayed an RP-LC retention time of 807 s.

Regarding `O=C(CN1CCN(Cc2nc(-c3ccc(N4CCCCC4)nc3)no2)CC1)N1CCCC1`, the RP-LC retention time turned out to be 587 s.

In turn, `CCn1nccc1-c1csc(S(=O)(=O)N2CCN(c3ccccn3)CC2)c1` yielded an RP-LC retention time of 657 s.

Take `COC(=O)c1c(C)[nH]c(C(=O)N2CCCC(C(=O)NCCc3ccco3)C2)c1C` (stereo not given): the RP-LC retention time was determined as 698 s.

For the compound `O=C(NCC1CCOCC1)Nc1cccc(F)c1`, the RP-LC retention time is 698 s.

Regarding `CC1(C(=O)NCc2ccccc2)Cn2cnc(C(=O)NC3CC3)c2C(=O)N1C1CC1` (stereo not given), the RP-LC retention time came to 660 s.

With `CSc1ccc(-c2nc3nc(C)cc(C)n3c2Nc2ccc3c(c2)OCCO3)cc1`, the RP-LC retention time came out at 724 s.

`COc1ccc(-c2nnc(-c3ccc(C)c(S(=O)(=O)NC(C)C(=O)O)c3)o2)cc1OC` (stereo not given) gave an RP-LC retention time of 748 s.

Compound `CC(=O)N1CCCc2cc(S(N)(=O)=O)ccc21` gave an RP-LC retention time of 559 s.

Compound `O=C(C1CCN(Cc2cc3ccccc3n2Cc2ccccc2)CC1)N1CCCCC1` came in with an RP-LC retention time of 757 s.

Compound `CCn1c(=O)sc2cc(S(=O)(=O)N3CCC(C(=O)NC4CC4)CC3)ccc21` showed an RP-LC retention time of 737 s.

`O=C(NCCc1ccccn1)C1CN(C(=O)c2cccs2)CC12CCCCC2` (stereo not given): the RP-LC retention time is 602 s.

With `COc1ccc(S(=O)(=O)N2C[C@H]3CN(C(=O)Nc4ccccc4C)C[C@@H](C2)O3)cc1`, the RP-LC retention time was found to be 771 s.

Regarding `Cc1ccccc1-n1ccn(Cc2nc(-c3cccc(F)c3)no2)c(=O)c1=O`, the RP-LC retention time is 837 s.

`Cc1ccccc1-c1nc(-c2cccc(-c3ccn[nH]3)c2)no1` gave an RP-LC retention time of 1080 s.

`CCN1CCN(c2ncc(C(=O)OC)c3ccccc23)CC1` came in with an RP-LC retention time of 604 s.

For `O=S(=O)(NCc1ccccc1F)c1c[nH]c2ncccc12`, the RP-LC retention time was 708 s.

For the compound `Cc1cc(C)c(S(=O)(=O)N2CCn3c(nn(CC4CC4)c3=O)C2)cc1C`, the RP-LC retention time was determined as 873 s.

`O=C(Nc1nnc(C2CC(=O)N(c3ccccc3)C2)o1)c1ccccc1Cl` (stereo not given) gave an RP-LC retention time of 807 s.

In turn, `CN1C(=O)C2CCCCN2c2ccc(C(=O)NCCCN(C)C3CCCCC3)cc21` (stereo not given) had an RP-LC retention time of 655 s.

`Cc1cc(C)cc(NC(=O)N2CCC(c3nc(C(=O)N(C)C)c(C)o3)CC2)c1`: the RP-LC retention time turned out to be 730 s.

Compound `Cc1cccc(Sc2nccnc2N2CCCC(C(=O)NCCN3CCOCC3)C2)c1` (stereo not given) gave an RP-LC retention time of 686 s.

As to `CCN1CCn2cc(C(=O)NCc3ccc(C(C)C)cc3)nc2C1`, the RP-LC retention time was 644 s.

The compound `CC(C)COc1cc(=O)n2c(c1C(=O)NCCCN1CCCCC1)CCCCC2` displayed an RP-LC retention time of 584 s.

In turn, `CCCCC(=O)Nc1nc(-c2ccc3c(c2)NC(=O)CO3)c(C)s1` came in with an RP-LC retention time of 839 s.

For the compound `O=C(Cn1nc2c(N3CCc4ccccc4C3)nccn2c1=O)NC1CCCC1`, the RP-LC retention time was determined as 793 s.

The compound `COc1cccc(C(=O)NC2CCN(c3cc(-c4ccc(Cl)cc4)[nH]n3)C2)c1OC` (stereo not given) came in with an RP-LC retention time of 807 s.

Compound `Cc1cccc(NC(=O)N2CCCC2c2nc(-c3cccc(Cl)c3)no2)c1` (stereo not given) yielded an RP-LC retention time of 1100 s.

Consider `CCOC(=O)C1CCN(CC(=O)Nc2oc3ccccc3c(=O)c2-c2ccccc2)CC1`, for which the RP-LC retention time turned out to be 586 s.

`Cc1cc(N2CCC(NC(=O)NCc3cccc(F)c3)C2=O)ccc1F` (stereo not given) had an RP-LC retention time of 903 s.

The compound `COc1cc(NC(=O)Nc2c(-c3ccc(F)cc3)nc3ccccn23)cc(OC)c1` displayed an RP-LC retention time of 678 s.

With `CCOC(=O)C1CCN(C(=O)C2CCN(c3nnc(-c4ccc(C)cc4)o3)CC2)CC1`, the RP-LC retention time is 842 s.

Regarding `COc1ccccc1S(=O)(=O)NCCc1ccsc1`, the RP-LC retention time came to 824 s.

`O=C(CCSc1ccccc1)Nc1ccc2c(c1)CN(C(=O)C1CC1)CC2` came in with an RP-LC retention time of 816 s.

The compound `Cc1cccc(-c2noc(C3CCCN3C(=O)NC3CCCC3)n2)c1` (stereo not given) displayed an RP-LC retention time of 955 s.

Compound `CCc1ccc(S(=O)(=O)N2CCN(CCc3cn(C)c4ncccc34)CC2)cc1` gave an RP-LC retention time of 668 s.

`CCCCN(C)Cc1nnn(-c2ccc(F)cc2)c1C` had an RP-LC retention time of 617 s.

`Cc1ccc(N2CCN(C(=O)CN3CCN(Cc4ccc(F)cc4)C3=O)CC2)cc1` displayed an RP-LC retention time of 837 s.

`CN(CC1(C)CCOCC1)C(=O)c1ccccc1Br` came in with an RP-LC retention time of 806 s.

With `COc1ccc(-c2cc3nn(CC(=O)Nc4ccc(Cl)cc4)c(=O)n3c(C)n2)cc1`, the RP-LC retention time stood at 974 s.

The compound `COc1ccc(Nc2c(-c3ccc(OC)c(OC)c3)nc3cnccn23)cc1` registered an RP-LC retention time of 730 s.

In turn, `Cc1noc(C)c1Cc1ccc(C(=O)N2CCC(c3nc(CCOCC4CC4)no3)C2)o1` (stereo not given) displayed an RP-LC retention time of 784 s.

As for `COc1ccc(Cn2c(=O)c3sccc3n(Cc3nc(-c4cccc(OC)c4)no3)c2=O)cc1`, the RP-LC retention time was 962 s.

Take `CCN1C(=O)COc2ccc(-c3csc(NC(=O)CCc4ccccc4)n3)cc21`: the RP-LC retention time was found to be 664 s.

Turning to `Cc1c(Cl)cccc1Nc1ccccc1C(=O)O`, the RP-LC retention time stood at 1060 s.

`CCOC(=O)c1ccc(NC(=O)c2cc3sc(Cl)cc3n2CC)cc1` displayed an RP-LC retention time of 1260 s.

Compound `c1cc(-c2noc(-c3cccs3)n2)cc(-c2ccn[nH]2)c1` registered an RP-LC retention time of 903 s.

With `Cn1c(=O)oc2cc(-c3noc(CNC(=O)C(c4ccccc4)c4ccccc4)n3)ccc21`, the RP-LC retention time was 928 s.

As to `Cc1ccc(C2Cn3cnc(C(=O)N4CCC(C(=O)NCc5cc(F)ccc5F)CC4)c3CO2)cc1` (stereo not given), the RP-LC retention time was 808 s.
